Results reported in patent US11202791B2, “Compositions containing tannic acids and uses thereof” (SyneuRx International (Taiwan) Corp., priority 2016, dated 2021).

What was measured:
Assay type in all cases: in vivo, C57BL/6J male mice
MK-801 treated mice [1] = experiment: Open field, MK-801-induced hyper-locomotion
Procedure: Each mouse in Groups 2-6 received an acute administration of MK-801 (Sigma-Aldrich, USA) dissolved in normal saline, 0.1 mg/kg, i.p.) 20 minutes prior to the behavioral tests. Each mouse in Groups 3-6 received an acute administration of tannic acids (Sigma-Aldrich, USA; dissolved in PBS, 10, 15, 20 or 30 mg/kg, i.p.) 20 minutes prior to the MK-801 administration.
(§1) Each mouse in Groups 2-5 received an acute administration of MK-801 (Sigma-Aldrich, USA) dissolved in normal saline, 0.1 mg/kg for open field and Barnes maze tasks, and 0.2 mg/kg for prepulse inhibition and sucrose preference tasks by i.p. injection) 20 minutes prior to the behavioral tests. Each mouse in Groups 3-6 received an acute oral administration of tannic acids (Merck Millipore, Germany; dissolved in PBS, 10, 30, or 100 mg/kg, p.o.) 20 minutes prior to the MK-801 administration.
Each mouse in Groups 2-5 received an acute administration of 0.2 mg/kg MK-801 (Sigma-Aldrich, USA) dissolved in normal saline by i.p. injection 20 minutes prior to the locomotion activity test. […]
The open field task is a common measurement of novelty induced exploratory behavior and general activity in both mice and rats. […] Their spontaneous locomotor activities were measured for 30 minutes using the SMART video tracking system (Panlab, Harvard Apparatus). The travel distance of each mouse was measured as an index of locomotion activity.

MK-801 treated mice [2] = experiment: Sucrose preference (anhedonia) in MK-801 treated mice; settings: MK-801 alone 0.2 mg/kg i.p.
Procedure: as §1
Sucrose preference test has been commonly examined in mouse models of several mental illnesses, including, but not limited to, depression, major depression disorder, anhedonia, negative symptoms of schizophrenia, chronic mild and unpredictable stress (see Anderson et al., 2006; Carvalho et al., 2013; Briones et al., 2011; Der-Avakian and Markou, 2012; Tye et al., 2013; Edwards and Koob, 2012; Brigman et al., 2010; Koo and Duman, 2007; Nestler and Hyman, 2010; Overstreet, 2012; Papp et al., 1991; Santiago et al., 2010; Skalisz et al., 2002; Szczypka et al., 2001; Taylor et al., 2010; Vardigan et al., 2010; Willner et al., 1987; You et al., 2011).

MK-801 treated mice [3] = experiment: Prepulse inhibition in MK-801-treated mice

Compound: C[C@]12N[C@H](Cc3ccccc31)c1ccccc12 [MK-801, dizocilpine]
- locomotion activity vs control group (MK-801 treated mice [1]; MK-801 alone 0.1 mg/kg i.p. (Example 3)): hyper-locomotion activity
- locomotion activity vs control group (MK-801 treated mice [1]; MK-801 alone 0.2 mg/kg i.p. (Example 9)): hyper-locomotion activity
- preference toward the sucrose solution (2%) vs control group (MK-801 treated mice [2]): did not show the preference toward the sucrose solution
- prepulse inhibition vs control group (MK-801 treated mice [3]; MK-801 alone 0.2 mg/kg i.p. (Example 4)): robust prepulse inhibition deficits
- prepulse inhibition vs control group (MK-801 treated mice [3]; MK-801 alone 0.3 mg/kg i.p., all prepulse intensities (Example 9)): robust prepulse inhibition deficits
